Results published in the NIST ThermoML archive (doi:10.1021/je030151s).

Experiment: xn = mol fraction of the nth substance listed
Settings: 101.3 kPa, Liquid; for viscosity: Capillary tube (Ostwald / Ubbelohde) method

CCC(=O)CC [pentan-3-one] + CCc1ccccc1
Settings | mass density, 293.15 K [kg/m3] | mass density, 303.15 K [kg/m3] | mass density, 313.15 K [kg/m3] | speed of sound, 293.15 K [m/s] | speed of sound, 303.15 K [m/s] | speed of sound, 313.15 K [m/s] | viscosity, 293.15 K [mPa·s] | viscosity, 303.15 K [mPa·s] | viscosity, 313.15 K [mPa·s]
x1 = 0.0911 | 867 | 855.9 | 848.3 | 1328.5 | 1290.2 | 1254.5 | 0.6538 | 0.5795 | 0.5116
x1 = 0.2055 | 865.5 | 855.1 | 847 | 1319 | 1281.9 | 1246.6 | 0.625 | 0.5539 | 0.4881
x1 = 0.3176 | 863.2 | 852.8 | 844.5 | 1309.6 | 1272.2 | 1237.2 | 0.6015 | 0.5281 | 0.4642
x1 = 0.4296 | 860.1 | 849.9 | 840.8 | 1298 | 1264.5 | 1227.2 | 0.5789 | 0.5046 | 0.4429
x1 = 0.5331 | 854.8 | 845.3 | 836.6 | 1287 | 1252.3 | 1217.5 | 0.5574 | 0.486 | 0.4247
x1 = 0.6387 | 848.5 | 839.6 | 830.6 | 1275 | 1242 | 1206 | 0.534 | 0.469 | 0.411
x1 = 0.7378 | 842.5 | 833.4 | 824.5 | 1263 | 1230 | 1195 | 0.516 | 0.454 | 0.399
x1 = 0.8322 | 835 | 826.8 | 817.5 | 1251 | 1217.5 | 1184.4 | 0.4975 | 0.441 | 0.388
x1 = 0.9245 | 826 | 818 | 808 | 1240.3 | 1206.6 | 1172.5 | 0.4811 | 0.4309 | 0.38
x1 = 1 | 814.4 | 804.7 | 794.9 | 1230.7 | 1197.8 | 1159.1 | 0.4714 | 0.4231 | 0.3799
